Data from patent US20090131430A1, “PYRIDO'2,3-DIPYRIMIDINES AS ANTI-INFLAMMATORY AGENTS” (priority 2004, published 2009).
pIC50: −log10 of the molar value.

Assays:
[1] = test system: TNF-α release from peripheral blood mononuclear cells; assay: Cell based assay for TNF-α release, LPS stimulation of human PBMNC's (ELISA); conditions: PBMC, LPS 20 ng/ml, overnight, span over the group, units given in the value
Procedure: Human whole blood was collected in vacutainer tubes containing EDTA as an anti coagulant. A blood sample (7 ml) was carefully layered over 5 ml PMN Cell Isolation Medium (Robbins Scientific) in a 15 ml round bottom centrifuge tubes. The sample was centrifuged at 450-500×g for 30-35 minutes in a swing-out rotor at room temperature. After centrifugation the top band of cells were removed and washed 3 times with PBS w/o calcium or magnesium. The cells were centrifuged at 400×g for 10 minutes at room temperature. The cells were resuspended in Macrophage Serum Free Medium (Gibco BRL) at concentration of 2 million cells/ml.
PBM cells (0.1 ml; 2 million/ml) were co-incubated with 0.1 ml of compound (10-0.41 μM, final concentration) for 1 hour in flat bottom 96 well microtiter plate. Compounds were dissolved in DMSO initially and diluted in TCM for a final concentration of 0.1% DMSO. LPS (Cal biochem, 20 ng/ml, final concentration) was then added at volume of 0.010 ml. Cultures were incubated overnight at 37° C.). Supernatant were then removed and tested by ELISA for TNF-α release. Viability was analyzed using MTT. After 0.1 ml supernatant was collected, 0.1 ml of 0.25 mg/ml of MTT was added to remaining 0.1 ml of cells. The cells were incubated at 37° C. for 2-4 hours, then the O.D was measured at 490-650 nm n.
The TNF-α levels released in the culture medium were quantitated by ELISA. Inhibitory potency was expressed as IC50.

[2] = Precipitate formation in the DMSO solvent used; assay type: physicochemical; conditions: DMSO solvent used in testing

pIC50 [1]	SMILES	further results
	Cn1c(=O)c(-c2ccccc2Cl)cc2cnc(NC3CC4CCCC(C3)N4Cc3ccccc3)nc21 (stereo not shown)	melting point: 76.9 to 82 °C
	Cn1c(=O)c(-c2ccccc2Cl)cc2cnc(NC3CC4CCC(C3)N4Cc3ccccc3)nc21 (stereo not shown)	melting point: 147.4 to 153.8 °C
5.64 to 7.92	Cn1c(=O)c(-c2ccccc2Cl)cc2cnc(NC3C4CN(C(=O)Nc5ccc(F)cc5)CC43)nc21 (stereo not shown) [Compound No. 2, 6-[6-(2-Chlorophenyl)-8-methyl-7-oxo-7,8-dihydro-pyrido[2,3-d]pyrimidin-2-ylamino]-3-aza-bicyclo[3.1.0]hexane-3-carboxylic acid-(4-fluorophenyl)-amide]	
5.64 to 7.92	Cn1c(=O)c(-c2ccccc2Cl)cc2cnc(NC3C4CN(S(C)(=O)=O)CC43)nc21 (stereo not shown) [Compound No. 4, 6-(2-Chlorophenyl)-2-(3-methanesulphonyl-3-aza-bicyclo[3.1.0]hex-6-ylamino)-8-methyl-8H-pyrido[2,3-d]pyrimidin-7-one]	
5.64 to 7.92	Cn1c(=O)c(-c2ccccc2Cl)cc2cnc(NC3C4CN(C(=O)OCc5ccccc5)CC43)nc21 (stereo not shown) [Compound No. 6, 6-[6-(2-Chlorophenyl)-8-methyl-7-oxo-7,8-dihydro-pyrido[2,3-d]pyrimidin-2-ylamino]-3-aza-bicyclo[3.1.0]hexane-3-carboxylic acid benzyl ester]	
5.64 to 7.92	O=C(OCc1ccccc1)N1CC2C(C1)C2Nc1ncc2cc(-c3ccccc3Cl)c(=O)n(-c3ccc(F)cc3)c2n1 (stereo not shown) [Compound No. 12, 6-[6-(2-Chlorophenyl)-8-(4-fluorophenyl)-7-oxo-7,8-dihydro-pyrido[2,3-d]pyrimidin-2-ylamino]-3-aza-bicyclo[3.1.0]hexane-3-carboxylic acid benzyl ester]	
5.64 to 7.92	O=c1c(-c2ccccc2Cl)cc2cnc(NCC3C4CN(Cc5ccccc5)CC34)nc2n1-c1ccc(F)cc1 (stereo not shown) [Compound No. 16, 2-[(3-Benzyl-3-aza-bicyclo[3.1.0]hex-6-ylmethyl)-amino]-6-(2-chlorophenyl)-8-(4-fluorophenyl)-8H-pyrido[2,3-d]pyrimidin-7-one]	
5.64 to 7.92	O=c1c(-c2ccccc2Cl)cc2cnc(NC3C4CN(Cc5ccccc5)CC43)nc2n1C1CC1 (stereo not shown) [Compound No. 17, 2-(3-Benzyl-3-aza-bicyclo[3.1.0]hex-6-ylamino)-6-(2-chlorophenyl)-8-cyclopropyl-8H-pyrido[2,3-d]pyrimidin-7-one]	
5.64 to 7.92	O=C(OCc1ccccc1)N1CC2C(C1)C2Nc1ncc2cc(-c3ccccc3Cl)c(=O)n(C3CC3)c2n1 (stereo not shown) [Compound No. 18, 6-[6-(2-Chlorophenyl)-8-cyclopropyl-7-oxo-7,8-dihydro-pyrido[2,3-d]pyrimidin-2-ylamino]-3-aza-bicyclo[3.1.0]hexane-3-carboxylic acid benzyl ester]	
5.64 to 7.92	O=c1c(-c2ccccc2Cl)cc2cnc(NC3C4CNCC43)nc2n1C1CC1 (stereo not shown) [Compound No. 19, 2-(3-Aza-bicyclo[3.1.0]hex-6-ylamino)-6-(2-chlorophenyl)-8-cyclopropyl-8H-pyrido[2,3-d]pyrimidin-7-one]	
5.64 to 7.92	CN1CC2C(C1)C2Nc1ncc2cc(-c3ccccc3Cl)c(=O)n(C3CC3)c2n1 (stereo not shown) [Compound No. 20, 6-(2-Chlorophenyl)-8-cyclopropyl-2-(3-methyl-3-aza-bicyclo[3.1.0]hex-6-ylamino)-8H-pyrido[2,3-d]pyrimidin-7-one]	
	Cc1ccc(S(=O)(=O)N2CC3C(C2)C3Nc2ncc3cc(-c4ccccc4Cl)c(=O)n(C4CC4)c3n2)cc1 (stereo not shown) [Compound No. 21, 6-(2-Chlorophenyl)-8-cyclopropyl-2-[3-(toluene-4-sulphonyl)-3-aza-bicyclo[3.1.0]hex-6-ylamino]-8H-pyrido[2,3-d]pyrimidin-7-one]	formed a precipitate in the DMSO solvent used [2]: formed a precipitate in the DMSO solvent used
5.64 to 7.92	CC(=O)N1CC2C(C1)C2Nc1ncc2cc(-c3ccccc3Cl)c(=O)n(C3CC3)c2n1 (stereo not shown) [Compound No. 23, 2-(3-Acetyl-3-aza-bicyclo[3.1.0]hex-6-ylamino)-6-(2-chlorophenyl)-8-cyclopropyl-8H-pyrido[2,3-d]pyrimidin-7-one]	
5.64 to 7.92	CC(C)(C)CC(C)(C)NC(=O)N1CC2C(C1)C2Nc1ncc2cc(-c3ccccc3Cl)c(=O)n(C3CC3)c2n1 (stereo not shown) [Compound No. 24]	formed a precipitate in the DMSO solvent used [2]: formed a precipitate in the DMSO solvent used
5.64 to 7.92	O=C(Nc1ccc(F)cc1)N1CC2C(C1)C2Nc1ncc2cc(-c3ccccc3Cl)c(=O)n(C3CC3)c2n1 (stereo not shown) [Compound No. 26, 6-[6-(2-Chlorophenyl)-8-cyclopropyl-7-oxo-7,8-dihydro-pyrido[2,3-d]pyrimidin-2-ylamino]-3-aza-bicyclo[3.1.0]hexane-3-carboxylic acid-(4-fluorophenyl)-amide]	
5.64 to 7.92	O=c1[nH]c2nc(NC3C4CN(Cc5ccccc5)CC43)ncc2cc1-c1ccccc1Cl (stereo not shown) [Compound No. 27, 2-(3-Benzyl-3-aza-bicyclo[3.1.0]hex-6-ylamino)-6-(2-chlorophenyl)-8H-pyrido[2,3-d]pyrimidin-7-one]	
5.64 to 7.92	O=c1c(-c2ccccc2Cl)cc2cnc(NC3C4COCC3CN(Cc3ccccc3)C4)nc2n1C1CC1 (stereo not shown) [Compound No. 33, 2-(7-Benzyl-3-oxa-7-aza-bicyclo[3.3.1]non-9-ylamino)-6-(2-chlorophenyl)-8-cyclopropyl-8H-pyrido[2,3-d]pyrimidin-7-one]	
	O=c1c(-c2ccccc2Cl)cc2cnc(NC3C4CN(S(=O)(=O)c5ccc(C(F)(F)F)cc5)CC43)nc2n1C1CC1 (stereo not shown) [Compound No. 37, 6-(2-Chlorophenyl)-8-cyclopropyl-2-[3-(4-trifluoromethylbenzenesulfonyl)-3-aza-bicyclo[3.1.0]hex-6-ylamino]-8H-pyrido[2,3-d]pyrimidin-7-one]	formed a precipitate in the DMSO solvent used [2]: formed a precipitate in the DMSO solvent used
	Cn1c(=O)c(-c2ccccc2Cl)cc2cnc(NC3C4CN(S(=O)(=O)c5ccccc5)CC43)nc21 (stereo not shown) [Compound No. 41, 2-(3-Benzenesulphonyl-3-aza-bicyclo[3.1.0]hex-6-ylamino)-6-(2-chlorophenyl)-8-methyl-8H-pyrido[2,3-d]pyrimidin-7-one]	formed a precipitate in the DMSO solvent used [2]: formed a precipitate in the DMSO solvent used
	Cc1ccc(S(=O)(=O)N2CC3C(C2)C3Nc2ncc3cc(-c4ccccc4Cl)c(=O)n(C)c3n2)cc1 (stereo not shown) [Compound No. 43, 6-(2-Chlorophenyl)-8-methyl-2-[3-(toluene-4-sulfonyl)-3-aza-bicyclo[3.1.0]hex-6-ylamino]-8H-pyrido[2,3-d]pyrimidin-7-one]	formed a precipitate in the DMSO solvent used [2]: formed a precipitate in the DMSO solvent used
	O=c1c(-c2ccccc2Cl)cc2cnc(NC3C4COCC3CN(Cc3ccccc3)C4)nc2n1-c1ccc(F)cc1 (stereo not shown) [Compound No. 52, 2-(7-Benzyl-3-oxa-7-aza-bicyclo[3.3.1]non-9-ylamino)-6-(2-chlorophenyl)-8-(4-fluorophenyl)-8H-pyrido[2,3-d]pyrimidin-7-one]	melting point: 107.4 to 110.4 °C
5.64 to 7.92	N#CCn1c(=O)c(-c2ccccc2Cl)cc2cnc(NC3C4CN(Cc5ccccc5)CC43)nc21 (stereo not shown) [Compound No. 56, [2-(3-Benzyl-3-aza-bicycyclo[3.1.0]hex-6-ylamino)-6-(2-chlorophenyl)-7-oxo-7H-pyrido[2,3-d]pyrimidin-8-yl]-acetonitrile]	
5.64 to 7.92	N#CCn1c(=O)c(-c2ccccc2Cl)cc2cnc(NC3C4CN(C(=O)Nc5ccc(F)cc5)CC43)nc21 (stereo not shown) [Compound No. 57, 6-[6-(2-Chlorophenyl)-8-cyanomethyl-7-oxo-7,8-dihydro-pyrido[2,3-d]pyrimidin-2-ylamino]-3-aza-bicyclo[3.1.0]hexane-3-carboxylic acid (4-fluorophenyl)-amide]	
5.64 to 7.92	O=c1[nH]c2nc(NC3C4CNCC43)ncc2cc1-c1ccccc1Cl (stereo not shown) [Compound No. 58, 2-(3-Aza-bicyclo[3.1.0]hex-6-ylamino)-6-(2-chlorophenyl)-8H-pyrido[2,3-d]pyrimidin-7-one]	
	O=c1[nH]c2nc(NC3C4COCC3CN(Cc3ccccc3)C4)ncc2cc1-c1ccccc1Cl (stereo not shown) [Compound No. 61, 2-(7-Benzyl-3-oxa-7-aza-bicyclo[3.3.1]non-9-ylamino)-6-(2-chlorophenyl)-8H-pyrido[2,3-d]pyrimidin-7-one]	formed a precipitate in the DMSO solvent used [2]: formed a precipitate in the DMSO solvent used
5.64 to 7.92	NC(=O)N1CC2C(C1)C2Nc1ncc2cc(-c3ccccc3Cl)c(=O)n(C3CC3)c2n1 (stereo not shown) [Compound No. 63, 6-[6-(2-Chlorophenyl)-8-cyclopropyl-7-oxo-7,8-dihydro-pyrido[2,3-d]pyrimidin-2-ylamino]-3-aza-bicyclo[3.1.0]hexane-3-carboxylic acid amide]	
	CCOC(=O)N1CC2C(C1)C2Nc1ncc2cc(-c3ccccc3Cl)c(=O)n(C)c2n1 (stereo not shown) [Compound No. 68, 6-[6-(2-Chlorophenyl)-8-methyl-7-oxo-7,8-dihydro-pyrido[2,-d]pyrimidin-2-ylamino]-3-aza-bicyclo[3.1.0]hexane-3-carboxylic acid ethyl ester]	melting point: 118.7 to 125.2 °C
